Converted amounts (≈) assume the structure as drawn.
Assays:
Mtb H37Rv = test: MIC against Mtb H37Rv, resazurin microtitre assay; assay type: cell-based, Mycobacterium tuberculosis; conditions: 7-day exposure, Middlebrook 7H9 broth, 0.2% glycerol, 0.05% Tween 80, 10% ADC, three biological repeats
[1] = test system: MRC5 (human foetal lung fibroblast) cells; test: Antiproliferative activity against human cell line, SRB assay; assay type: cell-based; conditions: 24 h drug exposure and 72 h recovery in drug-free medium
Method: MRC5 (human foetal lung fibroblast) cell lines were obtained from Public Health England (mycoplasma-free status confirmed at six-monthly intervals by internal and external screening). They were thawed upon receipt and the supernatant removed after centrifugation (1000 rpm, 5 min). Cells were re-suspended in DMEM culture medium (supplemented with 10% v/v FCS, 1% penicillin/streptomycin, and 1% L-glutamine) and grown as adherent monolayers at 310 K in a 5% CO2 humidified atmosphere. Cells were passaged using trypsin/EDTA after reaching ∼90% confluence. Trypsin activity was quenched by addition of excess medium, and the single-cell suspension passaged twice weekly. MRC5 fibroblasts were discarded after five passages.
Briefly, 5 × 10^3 cells (MRC5) were seeded in a 96-well plate using 0.15 mL of culture medium. After 48 h pre-incubation at 310 K, the supernatant was removed and cells exposed to six concentrations (0–100 µM) of osmium complex, for which exact concentrations were determined using ICP-OES (calibration standards for Os freshly prepared in 3.6% v/v nitric acid containing 100 mg L^–1 ascorbic acid and 10 mM thiourea). DMSO was used to aid solubility of Os complexes, but never exceeded 0.5% v/v in the final culture medium. Cells were exposed to Os complexes for 24 h, and then washed with PBS and allowed 72 h recovery time in drug-free medium. Cell viability was determined using the sulforhodamine B (SRB) assay. Cells were fixed using 50 µL of 50% TCA, incubated at 277 K for 1 h, and then stained using SRB dye (0.4% dye in 1% acetic acid). After 30 min, excess dye was removed by acetic acid washing, and then the stain liberated using Tris base (10 mM, pH 10.5). Absorbance was measured using a Thermo Scientific Multiskan FC microplate reader fitted with a 492-nm filter. Data were processed using Microsoft Excel and are reported as percentage survival relative to the untreated control. Sigmoidal dose/response curves were fitted using Origin 2016 to determine IC50. Data were acquired as duplicate of triplicate experiments, with a positive control of cisplatin (CDDP).

Mtb [2] = conditions: comparison values, no reference given; cited from earlier work
Mtb [3] = test: Minimum bactericidal concentration against Mtb (CFU plating); assay type: cell-based, Mycobacterium tuberculosis; conditions: for bactericidal character against actively growing Mtb: from correlation of MBC with MIC; for MBC (minimal bactericidal concentration): lowest concentration with no CFUs on 7H10 medium
Method: The minimum bactericidal activity (MBC) was determined by setting up a microtitre plate as performed for the MIC determination. Instead of adding resazurin, each well from the microtitre plate was plated on to solid 7H10 medium and the CFUs were determined after incubation at 37°C. The lowest concentration at which no CFUs were counted was taken as the MBC. The MBCs were carried out with three independent experimental repeats.

Compound: CO[C@H]1/C=C/O[C@@]2(C)Oc3c(C)c(O)c4c(O)c(c(/C=N/N5CCN(C)CC5)c(O)c4c3C2=O)NC(=O)/C(C)=C\C=C\[C@H](C)[C@H](O)[C@@H](C)[C@@H](O)[C@@H](C)[C@H](OC(C)=O)[C@@H]1C [Rifampicin, reference compound]
- MIC (Mtb H37Rv; Mycobacterium tuberculosis, H37RV, 168 h): 0.38 to 0.76 µM (≈ 0.313 to 0.625 µg/mL)

Compound: CN(C)c1ccc(N=Nc2ccccn2)cc1.F[P-](F)(F)(F)(F)F.[Cl][Os+].c1ccc(-c2ccccc2)cc1 [Complex 3]
- MIC (Mtb H37Rv): 31.25 µM
- IC50 [1]: 16.9 ± 0.1 µM

Compound: Cc1ccc(C(C)C)cc1.Clc1ccc(N=Nc2ccccc2)nc1.F[P-](F)(F)(F)(F)F.[I][Os+] [Complex 14]
- MIC (Mtb H37Rv): 62.5 µM
- IC50 [1]: 16 ± 2 µM

Compound: Brc1ccc(N=Nc2ccccc2)nc1.Cc1ccc(C(C)C)cc1.F[P-](F)(F)(F)(F)F.[Cl][Os+] [Complex 11]
- MIC (Mtb H37Rv): 125 µM
- IC50 [1]: 18 ± 1 µM

Compound: NNC(=O)c1ccncc1 [isoniazid]
- MIC of current clinical TB drugs (Mtb [2]): ~1 µM

Compound: Cc1ccc(C(C)C)cc1.F[P-](F)(F)(F)(F)F.[I][Os+].c1ccc(N=Nc2ccccn2)cc1 [Complex 10]
- MIC (Mtb H37Rv): 5 µM
- IC50 [1]: 0.79 ± 0.06 µM

Compound: F[P-](F)(F)(F)(F)F.Oc1ccc(N=Cc2ccccn2)cc1.[I][Os+].c1ccc(-c2ccccc2)cc1 [Complex 15]
- MIC (Mtb H37Rv): 5 µM
- IC50 [1]: 13.5 ± 0.9 µM

Compound: Cc1ccc(C(C)C)cc1.F[P-](F)(F)(F)(F)F.Fc1ccc(N=Nc2ccccc2)nc1.[I][Os+] [Complex 12]
- MIC (Mtb H37Rv): 15.6 µM
- IC50 [1]: 9.1 ± 0.6 µM

Compound: CN(C)c1ccc(N=Nc2ccccn2)cc1.F[P-](F)(F)(F)(F)F.[I][Os+].c1ccc(-c2ccccc2)cc1 [Complex 4]
- MIC (Mtb H37Rv): 2.5 µM
- bactericidal character against actively growing Mtb (Mtb [3]): bactericidal
- MBC (minimal bactericidal concentration) (Mtb [3]): 6.25 µM
- IC50 [1]: 0.42 ± 0.03 µM

Compound: CC[C@@H](CO)NCCN[C@@H](CC)CO [ethambutol]
- MIC of current clinical TB drugs (Mtb [2]): ~5 µM

Compound: CN(C)c1ccc(N=Cc2ccccn2)cc1.Cc1ccc(C(C)C)cc1.F[P-](F)(F)(F)(F)F.[Cl][Os+] [Complex 5]
- MIC (Mtb H37Rv): 31.25 µM
- IC50 [1]: 7.6 ± 0.9 µM

Compound: F[P-](F)(F)(F)(F)F.Fc1ccc(N=Nc2ccccc2)nc1.[I][Os+].c1ccc(-c2ccccc2)cc1 [Complex 13]
- MIC (Mtb H37Rv): 62.5 µM
- IC50 [1]: 5.2 ± 0.7 µM

Compound: CN(C)c1ccc(N=Nc2ccccn2)cc1.Cc1ccc(C(C)C)cc1.F[P-](F)(F)(F)(F)F.[I][Os+] [Complex 2, [Os(AzPy-NMe2)I(p-cymene)]PF6]
- MIC (Mtb H37Rv): 1.25 µM
- MBC (minimal bactericidal concentration) (Mtb [3]): 6.25 µM
- IC50 [1]: 0.89 ± 0.01 µM

Compound: CN(C)c1ccc(N=Nc2ccccn2)cc1.Cc1ccc(C(C)C)cc1.[I-].[I][Os+] [Complex 8]
- MIC (Mtb H37Rv): 1.25 µM
- IC50 [1]: 0.42 ± 0.01 µM

Compound: CN(C)c1ccc(N=Nc2ccccn2)cc1.Cc1ccc(C(C)C)cc1.[Cl-].[I][Os+] [Complex 7]
- MIC (Mtb H37Rv): 1.25 µM
- IC50 [1]: 0.68 ± 0.03 µM

Compound: Cc1ccc(C(C)C)cc1.F[P-](F)(F)(F)(F)F.[Cl][Os+].c1ccc(N=Nc2ccccn2)cc1 [Complex 9]
- MIC (Mtb H37Rv): 15.6 µM
- IC50 [1]: 15 ± 2 µM

Compound: CN(C)c1ccc(N=Nc2ccccn2)cc1.Cc1ccc(C(C)C)cc1.F[P-](F)(F)(F)(F)F.[Cl][Os+] [Complex 1]
- MIC (Mtb H37Rv): 5 µM
- bactericidal character against actively growing Mtb (Mtb [3]): bactericidal
- MBC (minimal bactericidal concentration) (Mtb [3]): 12.5 µM
- IC50 [1]: 7.1 ± 0.2 µM

Compound: capreomycin
- MIC of current clinical TB drugs (Mtb [2]): ~3 µM

Compound: [H]/N=C(/N)N[C@H]1[C@H](O)[C@@H](O)[C@H](O[C@@H]2O[C@@H](C)[C@](O)(C=O)[C@H]2O[C@@H]2O[C@@H](CO)[C@H](O)[C@@H](O)[C@@H]2NC)[C@@H](N/C(N)=N\[H])[C@@H]1O [streptomycin]
- MIC of current clinical TB drugs (Mtb [2]): ~9 µM

Compound: CN(C)c1ccc(N=Cc2ccccn2)cc1.Cc1ccc(C(C)C)cc1.F[P-](F)(F)(F)(F)F.[I][Os+] [Complex 6]
- MIC (Mtb H37Rv): 7.81 µM
- IC50 [1]: 13 ± 2 µM
